# Columns and labels:
# [1] = target: T1, CXCR-4 transfected U87 cell line (U87.CXCR4) (Homo sapiens, UniProt P61073); assay: Intracellular CXCL-12-induced calcium mobilization assay (FLIPR); type: cell-based; settings: U87.CXCR4 cells; CXCL-12 25-50 ng/mL; compounds added 15 minutes before; read-out: IC50 CXCL-12 Ca2+ flux U87.CXCR4+
# T1 construct: expressed in transfected cells; host or cells: U87 cell line (U87.CXCR4)
# Protocol: Intracellular calcium mobilization induced by chemokines orchemokine-derived peptides were evaluated using a calcium responsive fluorescent probe and a FLIPR system. The CXCR-4 transfected U87 cell line (U87.CXCR4) cells were seeded in gelatine-coated black-wall 96-well plates at 20,000 cells per well and incubated for 12 hours. Cells were then loaded with the fluorescent calcium probe Fluo-2 acetoxymethyl at 4 μM final concentration in assay buffer (Hanks' balanced salt solution with 20 mM HEPES buffer and 0.2% bovine serum albumin, pH 7.4) for 45 min at 37′C. The intracellular calcium mobilization induced by the CXCL-12 (25-50 ng/mL) was then measured at 37° C. by monitoring the fluorescence as a function of time in all the wells simultaneously using a fluorometric imaging plate reader (FLIPR Tetra, Molecular Devices).
# [2] = target: T2, Jurkat cells expressing CXCR4 (Homo sapiens, UniProt P61073); assay: Chemokine (CXCL12-AF647) binding inhibition assay; settings: CXCL12-AF647 25 ng/mL, read-out: IC50 CXCL-12 binding Jurkat
# T2 construct: Jurkat cells expressing CXCR4; endogenous in cells; host or cells: Jurkat cells
# Protocol: Jurkat cells expressing CXCR4 were washed once with assay buffer (Hanks' balanced salt solution with 20 mM HEPES buffer and 0.2% bovine serum albumin, pH 7.4) and then incubated for 15 min at room temperature with the test compounds diluted in assay buffer at dose-dependent concentrations. Subsequently, CXCL12-AF647 (25 ng/mL) was added to the compound-incubated cells. The cells were incubated for 30 min at room temperature. Thereafter, the cells were washed twice in assay buffer, fixed in 1% paraformaldehyde in PBS, and analyzed on the FL4 channel of a FACSCalibur flow cytometer equipped with a 635-nm red diode laser (Becton Dickinson, San Jose, Calif., USA).
# The percentages of inhibition of CXCL12-AF647 binding were calculated according to the formula: [1−((MFI−MFINC)/(MFIPC−MFINC))]×100 where MFI is the mean fluorescence intensity of the cells incubated with CXCL12-AF647 in the presence of the inhibitor, MFINC is the mean fluorescence intensity measured in the negative control (i.e., autofluorescence of unlabeled cells), and MFIPC is the mean fluorescence intensity of the positive control (i.e., cells exposed to CXCL12-AF647 alone).
# [3] = in vitro; settings: human, Caco-2, pH 7.4
# Protocol: The goal of this assay was to evaluate the intestinal absorption potential of drug candidates using Caco-2 cell lines.
# Experimental Procedure • 1. Pre-warm Pre-warm HBSS Buffer in 37° C. water bath • 2. Sonicate Take compounds from −20° C., sonicate for a few minutes (no less than 1 minute) • 3. Solution preparation
# For A-to-B Direction: • HBSS buffer with 0.3% DMSO and 5 μM LY: add 150 μL DMSO and 50 μL LY (5 mM) into 50 ml HBSS buffer (pH 7.4). • HBSS buffer with 0.1% DMSO and 5 μM LY: add 50 μL DMSO and 50 μL LY (5 mM) into 50 mL HBSS buffer (pH 7.4).
# For B-to-A Direction: • HBSS buffer with 0.3% DMSO: add 150 μL DMSO into 50 ml HBSS buffer (pH 7.4). HBSS buffer with 0.1% DMSO: add 50 μL DMSO into 50 ml HBSS buffer (pH 7.4).
# For A-to-B Direction: • Prepare HBSS buffer with 0.4% DMSO: add 200 μL DMSO into 50 ml HBSS buffer (pH 7.4).
# For B-to-A Direction: • Prepare HBSS buffer with 0.4% DMSO and 5 μM LY: add 200 μL DMSO and 50 μL LY (5 mM) into 50 ml HBSS buffer (pH 7.4).
# • 4. Measure TEER Take cell culture plate out of incubator, wash the cell monolayers with HBSS buffer, and then measure TEER values at Rm temperature. • 5. Centrifuge Centrifuge the compound solution (from step 3) at 4000 rpm for 5 min before loading to donor chambers. • 6. Dosing Add solution based on the volumes listed in the following table (make sure to take extra 100 μL of donor sample for T0 as Backup).
# • 7. Apical LYTO samples To determine LY concentration in the apical chamber, take 100 μL sample from apical chambers into an opaque plate for LYTO. • 8. Pre-warm Pre-warm apical and basolateral plates at 37° C. for about 5 min, then begin transport by placing the apical plate onto basolateral plate. • 9. Incubation Keep the plates in incubator at 37° C. for 90 min. • 10.
# • Prepare 1× solution: • 3 μL (20×)+57 μL of 0.4% DMSO HBSS+60 μL ACN with IS (Osalmid or Imipramine)—120 μL (1×) • 11. Transport termination Separate the apical plate from the basolateral plate after 90-min incubation. • 12. Measure LY Take 100 μL samples from basolateral plate to an opaque plate as LYT90. • 13. Measure LY concentrations for LYTO and LYT90 by Fluorometer (at excitation of 485 nm/emission of 535 nm). • 14.
# Drug permeability: Papp=(VA/(Area×time))×([drug]accepter/(([drug]initial, donor)×Dilution Factor) • Where VA is the volume in the acceptor well, area is the surface area of the membrane and time is the total transport time in seconds.
# For Millicell-24 Cell Culture Plates: surface area of the membrane=0.7 cm^2, VA=0.8 mL (A-to-B) or 0.4 mL (B-to-A)
# T1 sequence (P61073 whole entry): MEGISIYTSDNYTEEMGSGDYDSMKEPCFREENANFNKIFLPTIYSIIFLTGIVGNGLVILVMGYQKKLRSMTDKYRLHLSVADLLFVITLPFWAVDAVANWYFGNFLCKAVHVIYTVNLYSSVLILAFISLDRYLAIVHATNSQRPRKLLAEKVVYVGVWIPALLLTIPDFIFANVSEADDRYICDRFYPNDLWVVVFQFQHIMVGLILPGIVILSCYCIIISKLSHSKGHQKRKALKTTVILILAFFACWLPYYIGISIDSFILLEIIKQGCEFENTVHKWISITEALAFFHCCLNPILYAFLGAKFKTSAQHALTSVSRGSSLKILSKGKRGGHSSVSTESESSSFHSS
# T2 sequence (P61073 whole entry): as above
smiles,measurement,setting,value
NC(=O)CCN(Cc1ncccc1Cl)[C@H]1CCCc2cccnc21 [Compound I-24],IC50,[1],≥ 1000 nM
same,IC50,[2],0.01 to 100 nM
same,"Papp A→B at 90 min, 10 μM",[3],> 10 ×10⁻⁶ cm/s
same,"Papp B→A at 90 min, 10 μM",[3],> 10 ×10⁻⁶ cm/s
same,"efflux ratio at 90 min, 10 μM",[3],0.1 to 10
Clc1cccnc1CN(CCc1cnc[nH]1)Cc1ncccc1-c1ccccc1 [Compound I-39],IC50,[1],≥ 1000 nM
same,IC50,[2],0.01 to 100 nM
same,"Papp A→B at 90 min, 10 μM",[3],> 10 ×10⁻⁶ cm/s
same,"Papp B→A at 90 min, 10 μM",[3],> 10 ×10⁻⁶ cm/s
same,"efflux ratio at 90 min, 10 μM",[3],0.1 to 10
Cc1cccnc1CN(CCc1cnc[nH]1)Cc1ncccc1-c1ccccc1 [Compound I-57],IC50,[1],100 to 1000 nM
same,IC50,[2],0.01 to 100 nM
same,"Papp A→B at 90 min, 10 μM",[3],< 5 ×10⁻⁶ cm/s
same,"Papp B→A at 90 min, 10 μM",[3],> 10 ×10⁻⁶ cm/s
same,"efflux ratio at 90 min, 10 μM",[3],0.1 to 10
"CC(c1ccccn1)N(CCC(N)=O)Cc1nc2ccccc2[nH]1 (stereo not shown) [Compound I-12, 3-(((1H-benzo[d]imidazol-2-yl)methyl)(1-(pyridin-2-yl)ethyl)amino)propanamide]",IC50,[1],≥ 1000 nM
same,IC50,[2],100 to 1000 nM
same,"Papp A→B at 90 min, 10 μM",[3],< 5 ×10⁻⁶ cm/s
same,"Papp B→A at 90 min, 10 μM",[3],> 10 ×10⁻⁶ cm/s
same,"efflux ratio at 90 min, 10 μM",[3],> 30
CC(C)c1cccnc1CN(CCc1cnc[nH]1)Cc1ncccc1Cl [Compound I-35],IC50,[1],100 to 1000 nM
same,IC50,[2],0.01 to 100 nM
same,"Papp A→B at 90 min, 10 μM",[3],> 10 ×10⁻⁶ cm/s
same,"Papp B→A at 90 min, 10 μM",[3],> 10 ×10⁻⁶ cm/s
same,"efflux ratio at 90 min, 10 μM",[3],0.1 to 10
Cc1cccnc1CN(CCc1cccc(O)n1)Cc1ncccc1C [Compound I-59],IC50,[1],≥ 1000 nM
same,IC50,[2],100 to 1000 nM
same,"Papp A→B at 90 min, 10 μM",[3],> 10 ×10⁻⁶ cm/s
same,"Papp B→A at 90 min, 10 μM",[3],> 10 ×10⁻⁶ cm/s
same,"efflux ratio at 90 min, 10 μM",[3],0.1 to 10
CC(C)c1cccnc1CN(CCc1cnc[nH]1)Cc1ncccc1C(C)C [Compound I-38],IC50,[1],≥ 1000 nM
same,IC50,[2],100 to 1000 nM
same,"Papp A→B at 90 min, 10 μM",[3],5 to 10 ×10⁻⁶ cm/s
same,"Papp B→A at 90 min, 10 μM",[3],> 10 ×10⁻⁶ cm/s
same,"efflux ratio at 90 min, 10 μM",[3],0.1 to 10
NC(=O)CCN(Cc1nccs1)[C@H]1CCCc2cccnc21 [Compound I-50],IC50,[1],≥ 1000 nM
same,IC50,[2],≥ 1000 nM
same,"Papp A→B at 90 min, 10 μM",[3],> 10 ×10⁻⁶ cm/s
same,"Papp B→A at 90 min, 10 μM",[3],> 10 ×10⁻⁶ cm/s
same,"efflux ratio at 90 min, 10 μM",[3],0.1 to 10
Cc1cccnc1CN(CCc1cnc[nH]1)Cc1ncccc1Cl [Compound I-10],IC50,[1],100 to 1000 nM
same,IC50,[2],0.01 to 100 nM
same,"Papp A→B at 90 min, 10 μM",[3],5 to 10 ×10⁻⁶ cm/s
same,"Papp B→A at 90 min, 10 μM",[3],> 10 ×10⁻⁶ cm/s
same,"efflux ratio at 90 min, 10 μM",[3],0.1 to 10
Cc1cccnc1CN(CCc1c[nH]cn1)Cc1nccs1 [Compound I-52],IC50,[1],≥ 1000 nM
same,IC50,[2],100 to 1000 nM
same,"Papp A→B at 90 min, 10 μM",[3],5 to 10 ×10⁻⁶ cm/s
same,"Papp B→A at 90 min, 10 μM",[3],> 10 ×10⁻⁶ cm/s
same,"efflux ratio at 90 min, 10 μM",[3],0.1 to 10
Clc1cccnc1CN(CCc1cnc[nH]1)Cc1nccc2ccccc12 [Compound I-37],IC50,[1],0.01 to 100 nM
same,IC50,[2],0.01 to 100 nM
same,"Papp A→B at 90 min, 10 μM",[3],5 to 10 ×10⁻⁶ cm/s
same,"Papp B→A at 90 min, 10 μM",[3],> 10 ×10⁻⁶ cm/s
same,"efflux ratio at 90 min, 10 μM",[3],0.1 to 10
Cc1cccnc1CN(CCC(N)=O)Cc1ncccc1Cl [Compound I-15],IC50,[1],≥ 1000 nM
same,IC50,[2],100 to 1000 nM
same,"Papp A→B at 90 min, 10 μM",[3],> 10 ×10⁻⁶ cm/s
same,"Papp B→A at 90 min, 10 μM",[3],> 10 ×10⁻⁶ cm/s
same,"efflux ratio at 90 min, 10 μM",[3],0.1 to 10
Cc1cccnc1CN(CCc1c[nH]cn1)Cc1nc2cc(F)ccc2n1C [Compound I-42],IC50,[1],≥ 1000 nM
same,IC50,[2],0.01 to 100 nM
same,"Papp A→B at 90 min, 10 μM",[3],< 5 ×10⁻⁶ cm/s
same,"Papp B→A at 90 min, 10 μM",[3],> 10 ×10⁻⁶ cm/s
same,"efflux ratio at 90 min, 10 μM",[3],> 30
"CC(c1ccccn1)N(CCc1ccccn1)Cc1nc2ccccc2[nH]1 (stereo not shown) [Compound I-2, N-((1H-benzo[d]imidazol-2-yl)methyl)-2-(pyridin-2-yl)-N-(1-(pyridin-2-yl)ethyl)ethanamine]",IC50,[1],0.01 to 100 nM
same,IC50,[2],0.01 to 100 nM
same,"Papp A→B at 90 min, 10 μM",[3],> 10 ×10⁻⁶ cm/s
same,"Papp B→A at 90 min, 10 μM",[3],> 10 ×10⁻⁶ cm/s
same,"efflux ratio at 90 min, 10 μM",[3],0.1 to 10
"Clc1cccnc1CN(CCc1c[nH]cn1)[C@H]1CCCc2cccnc21 [Compound I-27, (S)—N-(2-(1H-imidazol-4-yl)ethyl)-N-((3-chloropyridin-2-yl)methyl)-5,6,7,8-tetrahydroquinolin-8-amine]",IC50,[1],≥ 1000 nM
same,IC50,[2],0.01 to 100 nM
same,"Papp A→B at 90 min, 10 μM",[3],5 to 10 ×10⁻⁶ cm/s
same,"Papp B→A at 90 min, 10 μM",[3],> 10 ×10⁻⁶ cm/s
same,"efflux ratio at 90 min, 10 μM",[3],0.1 to 10
Cc1cccnc1CN(CCn1ccccc1=O)Cc1ncccc1C [Compound I-58],IC50,[1],≥ 1000 nM
same,IC50,[2],100 to 1000 nM
same,"Papp A→B at 90 min, 10 μM",[3],> 10 ×10⁻⁶ cm/s
same,"Papp B→A at 90 min, 10 μM",[3],> 10 ×10⁻⁶ cm/s
same,"efflux ratio at 90 min, 10 μM",[3],0.1 to 10
Cc1cccnc1CN(CCc1ccccn1)Cc1ncccc1C [Compound I-4],IC50,[1],100 to 1000 nM
same,IC50,[2],0.01 to 100 nM
same,"Papp A→B at 90 min, 10 μM",[3],> 10 ×10⁻⁶ cm/s
same,"Papp B→A at 90 min, 10 μM",[3],> 10 ×10⁻⁶ cm/s
same,"efflux ratio at 90 min, 10 μM",[3],0.1 to 10
Clc1cccnc1CN(CCc1cnc[nH]1)Cc1ncccc1Cl [Compound I-28],IC50,[1],100 to 1000 nM
same,IC50,[2],0.01 to 100 nM
same,"Papp A→B at 90 min, 10 μM",[3],> 10 ×10⁻⁶ cm/s
same,"Papp B→A at 90 min, 10 μM",[3],> 10 ×10⁻⁶ cm/s
same,"efflux ratio at 90 min, 10 μM",[3],0.1 to 10
COc1ccnc(CCN(Cc2ncccc2C)Cc2ncccc2C)c1 [Compound I-33],IC50,[1],≥ 1000 nM
same,IC50,[2],0.01 to 100 nM
same,"Papp A→B at 90 min, 10 μM",[3],> 10 ×10⁻⁶ cm/s
same,"Papp B→A at 90 min, 10 μM",[3],> 10 ×10⁻⁶ cm/s
same,"efflux ratio at 90 min, 10 μM",[3],0.1 to 10
Cc1cccnc1CN(CCc1cnc[nH]1)Cc1nccc2ccccc12 [Compound I-36],IC50,[1],0.01 to 100 nM
same,IC50,[2],0.01 to 100 nM
same,"Papp A→B at 90 min, 10 μM",[3],< 5 ×10⁻⁶ cm/s
same,"Papp B→A at 90 min, 10 μM",[3],> 10 ×10⁻⁶ cm/s
same,"efflux ratio at 90 min, 10 μM",[3],10 to 30
